Measured values taken from patent publication US20090252703A1, “Use of alcohol co-solvents to improve pegylation reaction yields” (priority 2006, published 2009).

Assay: solubility of CGRP peptides in aqueous conjugation buffer
Assay type: physicochemical
Settings: aqueous conjugation buffers used for coupling vehicle to the peptide
Excerpt: Co-solvent mediated conjugation of vehicle to CGRP peptide antagonists.

solubility in aqueous buffer medium (in words) | SMILES
relatively insoluble | CC(=O)N[C@@H](Cc1c[nH]c2ccccc12)C(=O)N[C@H](C(=O)N[C@H](C(=O)N[C@@H](Cc1cnc[nH]1)C(=O)N[C@@H](CCCNC(N)=O)C(=O)N[C@@H](CC(C)C)C(=O)N[C@@H](C)C(=O)NCC(=O)N[C@@H](CC(C)C)C(=O)N[C@@H](CC(C)C)C(=O)N[C@@H](CO)C(=O)N[C@@H](CCCNC(N)=O)C(=O)N[C@@H](CO)C(=O)NCC(=O)NCC(=O)N[C@H](C(=O)N[C@H](C(=O)N[C@@H](CCCCNC(=N)N)C(=O)N[C@@H](CCCCN)C(=O)N[C@@H](CC(N)=O)C(=O)N[C@@H](Cc1ccccc1)C(=O)N[C@H](C(=O)N1CCC[C@H]1C(=O)N[C@H](C(=O)N[C@@H](CC(=O)O)C(=O)N[C@H](C(=O)NCC(=O)N1C2CCCCC2C[C@H]1C(=O)N[C@@H](Cc1ccccc1)C(=O)N[C@@H](C)C(=O)N[C@@H](Cc1ccccc1)C(N)=O)C(C)C)[C@@H](C)O)C(C)C)C(C)C)C(C)C)[C@@H](C)O)C(C)C (stereo partly drawn) [SEQ ID NO:3]
relatively soluble | CC(=O)N[C@@H](Cc1c[nH]c2ccccc12)C(=O)N[C@H](C(=O)N[C@H](C(=O)N[C@@H](Cc1cnc[nH]1)C(=O)N[C@@H](CCCN=C(N)N)C(=O)N[C@@H](CC(C)C)C(=O)N[C@@H](C)C(=O)NCC(=O)N[C@@H](CC(C)C)C(=O)N[C@@H](CC(C)C)C(=O)N[C@@H](CO)C(=O)N[C@@H](CCCN=C(N)N)C(=O)N[C@@H](CO)C(=O)NCC(=O)NCC(=O)N[C@H](C(=O)N[C@H](C(=O)N[C@@H](CCCN=C(N)N)C(=O)N[C@@H](CCCCN)C(=O)N[C@@H](CC(N)=O)C(=O)N[C@@H](Cc1ccccc1)C(=O)N[C@H](C(=O)N1CCC[C@H]1C(=O)N[C@H](C(=O)N[C@@H](CC(=O)O)C(=O)N[C@H](C(=O)NCC(=O)N1CCC[C@H]1C(=O)N[C@@H](Cc1ccccc1)C(=O)N[C@@H](C)C(=O)N[C@@H](Cc1ccccc1)C(N)=O)C(C)C)[C@@H](C)O)C(C)C)C(C)C)C(C)C)[C@@H](C)O)C(C)C [SEQ ID NO:7]
relatively insoluble | CC(=O)N[C@@H](Cc1c[nH]c2ccccc12)C(=O)N[C@H](C(=O)N[C@H](C(=O)N[C@@H](Cc1cnc[nH]1)C(=O)N[C@@H](CCCNC(N)=O)C(=O)N[C@@H](CC(C)C)C(=O)N[C@@H](C)C(=O)NCC(=O)N[C@@H](CC(C)C)C(=O)N[C@@H](CC(C)C)C(=O)N[C@@H](CO)C(=O)N[C@@H](CCCNC(N)=O)C(=O)N[C@@H](CO)C(=O)NCC(=O)NCC(=O)N[C@H](C(=O)N[C@H](C(=O)N[C@@H](CCCCNC(=N)N)C(=O)N[C@@H](CCCCN)C(=O)N[C@@H](CC(N)=O)C(=O)N[C@@H](Cc1ccccc1)C(=O)N[C@H](C(=O)N1CCC[C@H]1C(=O)N[C@H](C(=O)N[C@@H](CC(=O)O)C(=O)N[C@H](C(=O)NCC(=O)N1CCC[C@H]1C(=O)N[C@@H](Cc1ccccc1)C(=O)N[C@@H](C)C(=O)N[C@@H](Cc1ccccc1)C(N)=O)C(C)C)[C@@H](C)O)C(C)C)C(C)C)C(C)C)[C@@H](C)O)C(C)C [SEQ ID NO:2]
